Results published in paper PMC5234776, “Study of the Antimicrobial Activity of Tilapia Piscidin 3 (TP3) and TP4 and Their Effects on Immune Functions in Hybrid Tilapia (Oreochromis spp.)” (PLoS ONE, 2017).
Peptide text beside a SMILES is read from it.

Assays:
in vivo = experiment: in vivo; design: species or system tilapia (Oreochromis hybrids, Tilapia spp.); details: male, iv, 0.2 mg/kg
Method: The peptide half-life of TP3 and TP4 were investigated in male tilapia (Oreochromis hybrids, Tilapia spp., with a mean body length of 32.33±1.5 cm and a mean body weight of 1117±78.2 g) after intravenous administration of a single dose of 0.2 mg/kg of peptide. The TP3 and TP4 concentrations in serum samples were determined at 10, 30, 60, 120, 180, 240, 300, and 360 minutes for TP3 and at 10, 60, 120, 180, 240, 300, and 360 minutes after dosing for TP4. At each sample collection time point, we anesthetized three fish and collected their blood. The blood was centrifuged to obtain fish serum, which was assessed by liquid chromatography-mass spectrometry/mass spectrometry (LC-MS/MS) at Mission Biotech (Taipei, Taiwan).

tilapia = experiment: Toxicity of peptide alone, tilapia survival; type: in vivo, tilapia (Oreochromis spp.); details: abdominal cavity, no infection, seven days (S2 Fig)
Method: The antimicrobial activities of TP3 and TP4 peptides were analyzed in tilapia infected with lethal amounts of bacteria. Different amounts of V. vulnificus were injected into the abdominal cavities of the fish, and survival rates were recorded as cumulative percentages (S1 Fig). To determine whether TP3 and TP4 had any toxic effects on the tilapia, we injected different doses of TP3 and TP4 (0.1, 1, 10, 20, 30, 40, or 50 μg/fish) into the abdominal cavity and recorded the cumulative survival percentage of the fish (S2 Fig). We also co-treated tilapia with different doses (0.1, 1, 10, 20 μg/fish) of TP3 or TP4 combined with 2x10^4 CFU of V. vulnificus to evaluate tilapia survival following treatment. […] After 14, 21, or 28 days following the first co-treatment with TP3, the tilapia that survived in the 20 μg/fish TP3 experimental group were injected with a second dose of 2x10^4 CFU of V. vulnificus, and the survival rates were measured for another seven days. […] In the co-treatment experiments, at 14, 21, or 28 days after the first co-treatment with TP4, the surviving tilapia in the 20 μg/fish TP4 experimental group received a second injection of 2x10^4 CFU of V. vulnificus, and the survival rates were measured for another seven days.
Supplementary file pone.0169678.s002.pdf: S2 Fig Determination of tilapia survival rates seven days after injection with different concentrations of TP3 or TP4. (a) The survival rates of tilapia injected with TP3 at a dose of 0.1 μg/fish, 1 μg/fish, or 10 μg/fish. (b) The percentage of tilapia surviving after injection with TP4 at 0.1 μg/fish, 1 μg/fish, or 10 μg/fish. (c) The percentage of tilapia surviving after injection with TP3 at 20 μg/fish, 30 μg/fish, 40 μg/fish, or 50 μg/fish. (d) The percentage of tilapia surviving after injection with TP4 at 20 μg/fish, 30 μg/fish, 40 μg/fish, or 50 μg/fish. The control group (control) was injected with PBS alone. (PDF) Click here for additional data file.

## CC[C@H](C)[C@H](NC(=O)[C@H](C)NC(=O)[C@H](CCCCN)NC(=O)CNC(=O)[C@H](C)NC(=O)[C@H](CO)NC(=O)[C@H](Cc1ccccc1)NC(=O)[C@H](CC(C)C)NC(=O)CNC(=O)CNC(=O)[C@@H](NC(=O)[C@@H](NC(=O)[C@H](Cc1cnc[nH]1)NC(=O)[C@H](Cc1cnc[nH]1)NC(=O)[C@@H](NC(=O)[C@@H](N)Cc1ccccc1)[C@@H](C)CC)[C@@H](C)CC)[C@@H](C)CC)C(=O)N[C@@H](Cc1cnc[nH]1)C(=O)N[C@@H](CCCNC(=N)N)C(=O)N[C@@H](CC(C)C)C(=O)N[C@H](C(=O)N[C@@H](CCCNC(=N)N)C(=O)N[C@@H](CCCNC(=N)N)C(=O)N[C@@H](CCCNC(=N)N)C(=O)N[C@@H](CCCNC(=N)N)C(=O)N[C@@H](CCCNC(=N)N)C(=O)O)[C@@H](C)CC [TP4, tilapia piscidin 4] (H-FIHHIIGGLFSAGKAIHRLIRRRRR-OH)
In vivo
  half-life: 1 h
tilapia; 20 μg/fish
  percent survival after injection of peptide only: 70.0%
tilapia; 30 μg/fish
  percent survival after injection of peptide only: 56.7%
tilapia; 40 μg/fish
  percent survival after injection of peptide only: 63.3%
tilapia; 50 μg/fish
  percent survival after injection of peptide only: 30.0%
